Measurements published in patent US9776990B2, “Isoindolone derivatives” (AbbVie Inc., priority 2012, dated 2017).

Experiments:
FaDu = test: Proliferation panel assay, FaDu; type: cell-based; settings: Homo sapiens, 120 h, Head & Neck, 5 days, read-out: Cellular Proliferation EC50
Method: (§1) The impact of compounds of the Examples on cancer cell proliferation was determined using the breast cancer cell line MX-1 (ATCC) in a 3-day proliferation assay. MX-1 cells were maintained in RPMI supplemented with 10% FBS at 37 C.° and an atmosphere of 5% CO2. For compound testing, MX-1 cells were plated in 96-well black bottom plates at a density of 5000 cells/well in 90 μl of culture media and incubated at 37° overnight to allow cell adhesion and spreading. Compound dilution series were prepared in DMSO via a 3-fold serial dilution from 3 mM to 0.1 μM. […]
(§2) Luminescence readings from the Cell Titer Glo assay were normalized to the DMSO treated cells and analyzed using the GraphPad Prism software with sigmoidal curve fitting to obtain EC50s. The minimum significant ratio (MSR) was determined to evaluate assay reproducibility (Eastwood et al., (2006) J Biomol Screen, 11: 253-261). The overall MSR was determined to be 2.1 and a moving MSR (last six run MSR overtime) has been <2.
(§3) The compound of Example 40 was tested for its impact on proliferation of a panel of cancer cell line types (with specific cell lines tested) as set out in (Table 2). […] Cell proliferation data were analyzed as described above in the MX-1 proliferation assay to obtain the EC50 for the compounds reported in Table 2.

HepG2 = test: Proliferation panel assay, HepG2; type: cell-based; settings: Homo sapiens, 120 h; Hepatocellular, HepG2, 5 days; read-out: Cellular Proliferation EC50
Method: as §1, §2, §3

BRD4 (BDII_E352-M457) = BRD4 (BDII_E352-M457) (Homo sapiens (Human), UniProt O60885); test: TR-FRET bromodomain binding assay, BRD4 second bromodomain; settings: His-tagged BD2, 30 nM Alexa647 probe
Outline: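 His-tagged BRD4 BD1 or BD2 (8 nM) with Eu-anti-His antibody (1 nM) and Alexa647-labelled BET-inhibitor probe (100 nM BDI, 30 nM BDII); 50 μM−0.85 nM compound, 2% DMSO, phosphate buffer pH 6.0, 1 h at room temperature. TR-FRET IC50 by 4-parameter fit, converted to Ki using probe Kd.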

HPAC = test: Proliferation panel assay, HPAC; type: cell-based; settings: Homo sapiens, 120 h, Pancreas, 5 days, read-out: Cellular Proliferation EC50
Method: as §1, §2, §3

SKM1 = test: Proliferation panel assay, SKM1; type: cell-based; settings: Homo sapiens, SKM-1, 120 h; AML, SKM1, 5 days; read-out: Cellular Proliferation EC50
Method: as §1, §2, §3

[1] = tested on: breast cancer cell line MX-1; test: MX-1 cell line proliferation assay (3-day, Cell Titer Glo); type: cell-based, human; settings: Homo sapiens, MX1, MX-1 cells, 72 hours, read-out: Cellular proliferation: EC50
BxPC3FP5 = test: Proliferation panel assay, BxPC3FP5; type: cell-based; settings: 120 h; Pancreas, BxPC3FP5, 5 days; read-out: Cellular Proliferation EC50
Method: as §1, §2, §3

Compound: Cc1[nH]c(-c2cc(NS(C)(=O)=O)ccc2Oc2ccccc2)c2c1C(=O)CCC2 [Example 40, N-[3-(3-methyl-4-oxo-4,5,6,7-tetrahydro-2H-isoindol-1-yl)-4-phenoxyphenyl]methanesulfonamide]
- EC50 (FaDu): 180 nM
- EC50 (HepG2): 320 nM
- Ki (BRD4 (BDII_E352-M457)): 43 nM
- EC50 (HPAC): 290 nM
- EC50 (SKM1): 39 nM
- EC50 [1]: 160 nM
- EC50 (BxPC3FP5): 70 nM
